Patent publication US6780871B2, “Methods and compositions for treating addiction disorders” (Albany Medical College, priority 2001, dated 2004)

Experiments:
[1] = tested on: morphine self-administration; assay: intravenous morphine self-administration; format: in vivo, rat; details: 18-methoxycoronaridine 1 mg/kg i.p., dextromethorphan 5 mg/kg s.c.
Procedure: Dextromethorphan hydrobromide (5 mg/kg; Sigma/RBI, St. Louis, Mo.) was dissolved in saline and injected subcutaneously 20 minutes before testing. Mecamylamine hydrochloride (1 mg/kg; Sigma/RBI, St. Louis, Mo.) was dissolved in physiological saline and injected intraperitoneally 30 minutes before testing. All rats received two injections. For rats that received a single drug, half of them also received the appropriate saline/vehicle injection corresponding to each of the other two drugs.
Naive female Long-Evans derived rats (250 g; Charles River, N.Y.) were maintained on a normal 12 h light cycle (lights on at 7:00 a.m., lights off at 7:00 p.m.). For all experiments the “Principles of Laboratory Animal Care” (NIH publication No. 85-23, revised 1985, which is hereby incorporated by reference) were followed.
The intravenous self-administration procedure described in Glick et al., “18-MC Reduces Methamphetamine and Nicotine Self-administration in Rats,” NeuroReport 11:2013-2015 (2000) (“Glick I”), which is hereby incorporated by reference, was employed. Briefly, responses on either of two levers (mounted 15 cm apart on the front wall of each operant test cage) were recorded on an IBM compatible computer with a Med Associates, Inc. interface. The intravenous self-administration system consisted of polyethylene-silicone cannulas constructed according to the design of Weeks, “Long-term Intravenous Infusion,” pp. 155-168 in Myers (ed.), Methods in Psychobiology, Vol. 2, New York: Academic Press (1972) (“Weeks”), which is hereby incorporated by reference; Instech harnesses and swivels; and Harvard Apparatus infusion pumps (#55-2222). Shaping of the bar-press response was initially accomplished by training rats to bar-press for water. Cannulas were then implanted in the external jugular vein according to procedures described in Weeks, which is hereby incorporated by reference. Self-administration testing began with a 16-h nocturnal session followed by daily 1-h sessions, 5 days (Monday-Friday) a week. A lever-press response produced a 10 μl infusion of drug solution (0.01 mg of morphine sulfate) in about 0.2 s or a 50 μl infusion of drug solution (0.025 mg of methamphetamine sulfate) in about 1 s. Since all rats generally weighed 250±20 g, each response delivered approximately 0.04 mg/kg of morphine or 0.1 mg/kg of methamphetamine. Experiments to assess the effects of experimental treatments were begun when baseline self-administration rates stabilized (≦10% variation from one day to the next across 5 days), usually after 2 weeks of testing.
Each data point represents the mean (±S.E.M.) percent of baseline of 6-8 rats. Significant differences between baseline and treatment are indicated by an asterisk (paired t-test, P<0.01-0.001).
Each data point represents the mean (±S.E.M.) percent of baseline of 5-8 rats. Significant differences between baseline and treatment are indicated by an asterisk (paired t-test), P<0.05-0.01).

[2] = tested on: methamphetamine self-administration; assay: intravenous methamphetamine self-administration; format: in vivo, rat

`COCC[C@H]1CC2CN3CCc4c([nH]c5ccccc45)[C@](C(=O)OC)(C2)[C@H]13` [18-methoxycoronaridine] was tested, and the “effect on morphine self-administration (percent of baseline)” value ([1]; Example 5, FIG. 5: mecamylamine 1 mg/kg i.p., 6-8 rats) was “none of the drugs administered alone, significantly decreased”, the “effect on morphine self-administration (percent of baseline)” value ([1]; Example 6, FIG. 8: mecamylamine 1 mg/kg i.p., bupropion 5 mg/kg i.p., 5-8 rats) was “none of the drugs administered alone, significantly decreased” and the “effect on methamphetamine self-administration (percent of baseline)” value ([2]; Example 5, FIG. 6: mecamylamine 1 mg/kg i.p., 18-methoxycoronaridine 2 mg/kg i.p., dextromethorphan 5 mg/kg s.c., 6-7 rats) was “none of the drugs administered alone, significantly decreased”. For the same compound, the “effect on methamphetamine self-administration (percent of baseline)” value ([2]; Example 6, FIG. 9: mecamylamine 1 mg/kg i.p., 18-methoxycoronaridine 5 mg/kg i.p., dextromethorphan 10 mg/kg s.c., bupropion 10 mg/kg i.p., 5-9 rats) was “none of the drugs administered alone, significantly decreased”.
